Data on eight compounds can be found in patent US20260216368A1, “BIS-ESTER AND AMIDE CATIONIC LIPIDS” (SANOFI PASTEUR INC., priority 2022, published 2026).

A short description of series [1]: DLS size and polydispersity of hEPO mRNA lipid nanoparticles. To be noted: Table 3, further LNPs; hEPO mRNA LNP, Cationic Lipid:DMG-PEG2000:Cholesterol:DOPE=40:1.5:28.5:30, N/P ratio 4, Process A. The class given is physicochemical. As for the experimental part:
The lipid nanoparticles in the examples of the present invention were formulated using Process A of WO 2018/089801 (see, e.g., Example 1 and FIG. 1 of WO 2018/089801). Process A (“A”) relates to a conventional method of encapsulating mRNA by mixing mRNA with a mixture of lipids, without first pre-forming the lipids into lipid nanoparticles. In an exemplary process, an ethanol lipid solution and an aqueous buffered solution of mRNA were prepared separately. A solution of mixture of lipids (cationic lipid, helper lipids, zwitterionic lipids, PEG lipids etc.) was prepared by dissolving lipids in ethanol. The mRNA solution was prepared by dissolving the mRNA in citrate buffer. Then, these two solutions were mixed using a pump system. In some instances, the two solutions were mixed using a gear pump system. In certain embodiments, the two solutions were mixing using a ‘T’ junction (or “Y” junction). The mixture was then purified by diafiltration with a TFF process. The resultant formulation concentrated and stored at 2-8° C. until further use.
(§1) Lipid nanoparticle formulations of Table 1 were prepared by Process A. More specifically, an ethanolic solution of a mixture of lipids including DMG-PEG-2000, cationic lipid, cholesterol, and phosphatidylethanolamine (DOPE) in a ratio of 1.5:40:28.5:30 were combined with an aqueous buffered solution (1 mM Citrate and 150 mM NaCl) of target mRNA at an acidic pH (4.5) under controlled conditions to yield a dispersion of uniform lipid nanoparticles (LNPs). Upon ultrafiltration and diafiltration into the final buffer, the resulting nanoparticle dispersions were diluted to required concentration using the final buffer (10% Trehalose), sterile filtered and stored frozen at −80° C. until use.
All of the lipid nanoparticle formulations comprised hEPO mRNA and the different lipids in following mol % ratios: Cationic Lipid: DMG-PEG2000; Cholesterol:DOPE=40:1.5:28.5:30.
DLS measurements were performed using a Malvern Instruments Zetasizer with a backscattering detector angle of 173° and a 4-mW, 633-nm He—Ne laser (Worcestershire, UK). The samples were analyzed by diluting in 10% Trehalose and measuring the size and Poly dispersity Index (PDI) in an optical grade polystyrene cuvette.
The following lipid nanoparticles were formulated according to Example 51.
as §1, with “Table 3” for “Table 1”

Series [2] is described as follows: RiboGreen assay, % encapsulation of mRNA in lipid nanoparticles. The class given is physicochemical. To be noted: Table 3, further LNPs; hEPO mRNA LNP, Cationic Lipid:DMG-PEG2000:Cholesterol:DOPE=40:1.5:28.5:30, N/P ratio 4, Process A. The source says:
In embodiments, the lipid nanoparticle encapsulates a nucleic acid, optionally an mRNA encoding a peptide or protein. In embodiments, the peptide is an antigen. In embodiments, the lipid nanoparticle encapsulates an mRNA encoding a peptide or protein. As used herein, the phrase “encapsulation percentage” refers to the fraction of therapeutic agent (e.g. mRNA) that is effectively encapsulated within a liposomal-based vehicle (e.g. a lipid nanoparticle) relative to the initial fraction of therapeutic agent present in the lipid phase. In embodiments, the lipid nanoparticles have an encapsulation percentage for mRNA of at least 50%. In embodiments, the lipid nanoparticles have an encapsulation percentage for mRNA of at least 55%. In embodiments, the lipid nanoparticles have an encapsulation percentage for mRNA of at least 60%. In embodiments, the lipid nanoparticles have an encapsulation percentage for mRNA of at least 65%. In embodiments, the lipid nanoparticles have an encapsulation percentage for mRNA of at least 70%. In embodiments, the lipid nanoparticles have an encapsulation percentage for mRNA of at least 75%. In embodiments, the lipid nanoparticles have an encapsulation percentage for mRNA of at least 80%. In embodiments, the lipid nanoparticles have an encapsulation percentage for mRNA of at least 85%. In embodiments, the lipid nanoparticles have an encapsulation percentage for mRNA of at least 90%. In embodiments, the lipid nanoparticles have an encapsulation percentage for mRNA of at least 95%. In embodiments, the encapsulation percentage is calculated by performing the Ribogreen assay (Invitrogen) with and without the presence of 0.1% Triton-X 100.
The RiboGreen Assay is a fluorescence-based method for the determination of mRNA concentration (Total and Free) and % encapsulation using Quant-iT™ RiboGreen® RNA reagent in mRNA containing lipid nanoparticles.
• To each of the standards (Blank, mRNA-1, mRNA-2. mRNA-3, mRNA-4, mRNA-5) and Samples (free mRNA and total mRNA), add 1.0 mL of 200-fold Ribogreen Reagent Solution and gently mix by inversion. This is a 2× Dilution. • Add 200 μL of each standard and sample in triplicate using the reverse pipetting technique in a 96-well Costar Black with Clear Background Plate. Ensure no bubbles are present in the plate before the fluorescence reading. • Read the fluorescence signal using the below instrument parameters: • Read Type: Fluorescence, Bottom Read • Excitation: 485 nm; Cut-off: 515 nm; Emission: 530 nm • Plate Type: 96-well Costar Black with Clear Background
The average fluorescence from each calibration standard is plotted against the concentration to generate a linear calibration curve using the MS Excel software. The coefficient of determination (R^2) of calibration curve must be R^2>0.99.
[formula] • Where, • Y=average fluorescence value • m: slope • x: concentration (pg/mL) • c: y-intercept • Using the linear equation, calculate the concentration of free and total mRNA concentration in the test sample by replacing the y value in the equation with the average fluorescence value of each respective sample • Once the concentration is determined, the actual concentration in the sample can be back-calculated by multiplying the concentration in the test sample with the dilution factor (DF) as follows:
[formula] • Concentration of encapsulated mRNA can be determined by subtracting the concentration of free mRNA from the total mRNA. • % Encapsulation can then be calculated by taking the ratio of encapsulated mRNA over total mRNA and multiplying the result with 100.

Series [3] has as its system Human erythropoietin (hEPO) levels in sera. Put plainly: Delivery of hEPO mRNA by intramuscular administration of lipid nanoparticles; serum hEPO by ELISA. The class given is in vivo, Mouse. To be noted: serum, 6 hours post dose, 0.1 μg/animal hEPO mRNA LNP, IM, mice, n=4. As for the experimental part:
WO2022/099003 A1 describes an in vivo assay for intramuscular administration (e.g. on page 46, paragraph [00206]). Further details of the intramuscular experiment performed in this application are provided below.
Treatment Regimen: On Day 1, animals from Groups 1-8 were dosed via intramuscular injection while under light isoflurane anesthesia according to the study design table above. Animals in Groups 2-8 were injected with EPO in the right leg only. Group 1 animals received saline control.
Interim Sample Collections: Interim whole blood (~50 μL) was collected by tail snip or saphenous vein at 6 hours post dose administration (±5%). Blood samples were collected into serum separator tubes, allowed to clot at room temperature for at least 10 minutes, centrifuged at ambient temperature at minimum 1000 g for 10 minutes and the serum was extracted. All serum samples were stored at nominally −70° C. until analysis hEPO by the Testing Facility. The results of the EPO analysis were included in the Data Submission.
Terminal Blood Collections: Whole blood was collected via cardiac puncture into serum separator tube, allowed to clot at room temperature for at least 10 minutes, centrifuged at ambient temperature at minimum 1000 g for 10 minutes and the serum was extracted. Serum samples were stored at nominally −70° C. until analyzed for hEPO by the Test Facility.
ELISA Assay: Human erythropoietin (hEPO) levels in sera samples were determined by ELISA kit (R&D systems, Cat #DEP-00) according to the manufactory instruction and the results were included in the Data Submission. The “shaker” protocol was used. The serum samples were diluted between 1:40 and 1:100.
The ability of the further exemplary lipid nanoparticles in Example 54 to deliver hEPO mRNA by intramuscular administration was tested in accordance with the experimental protocol set out in Example 52.
For orientation: An ELISA detects its analyte on a solid surface through an enzyme-linked reagent.

In the case of `CCCCCCCCCCC(O)CN(CCCOC(=O)[C@H](CCc1ccc(O)cc1)NC(=O)CCCN(CC(O)CCCCCCCCCC)CC(O)CCCCCCCCCC)CC(O)CCCCCCCCCC` (stereo partly drawn) [Compound C, 3-[bis(2-hydroxydodecyl)amino]propyl (S)-2-{4-[bis(2-hydroxydodecyl)amino]butyrylamino}-4-(p-hydroxyphenyl)butyrate], in series [1], the PDI was found to be 0.093 and the “Size (nm)” value came to 108 nm. Besides, the “Encapsulation Percentage (%)” value in series [2] is on record as 82%. Further, the “hEPO 6 Hr (ng/mL) Mean” value in series [3] (fourth occasion) is 37.2 ng/mL.
`CCCCCCCCCCC(O)CN(CCCOC(=O)[C@H](Cc1c[nH]c2ccccc12)NC(=O)CCCN(CC(O)CCCCCCCCCC)CC(O)CCCCCCCCCC)CC(O)CCCCCCCCCC` (stereo partly drawn) [Compound CI, 3-(bis(2-hydroxydodecyl)amino)propyl (4-(bis(2-hydroxydodecyl)amino)butanoyl)-L-tryptophanate]: in series [1], the PDI stood at 0.155 and the “Size (nm)” value is given as 135 nm. In addition, the “Encapsulation Percentage (%)” value in series [2] amounted to 85%. Besides, the “hEPO 6 Hr (ng/mL) Mean” value in series [3] (second occasion) worked out at 40.5 ng/mL.
In the case of `CCCCCCCCCCC(O)CN(CCCOC(=O)N[C@@H](Cc1c[nH]cn1)C(=O)OCCCN(CC(O)CCCCCCCCCC)CC(O)CCCCCCCCCC)CC(O)CCCCCCCCCC` (stereo partly drawn) [Compound CIII, 3-(bis(2-hydroxydodecyl)amino)propyl ((3-(bis(2-hydroxydodecyl)amino)propoxy)carbonyl)-L-histidinate], in series [1], the PDI stood at 0.126 and the “Size (nm)” value was determined as 93 nm. Moreover, the “Encapsulation Percentage (%)” value in series [2] is recorded as 91%. In series [3] (fourth occasion), the “hEPO 6 Hr (ng/mL) Mean” value is 15.4 ng/mL.
As for `CCCCCCCCCCCOC(=O)CCCC(O)CN(CCCCN(C)C(=O)CN(C)CC(=O)N(C)CCCCN(CC(O)CCCCCC(=O)OC(CCCCCCCC)CCCCCCCC)CC(O)CCCC(=O)OCCCCCCCCCCC)CC(O)CCCCCC(=O)OC(CCCCCCCC)CCCCCCCC` (centres unmarked) [Compound LXXVII, di(heptadecan-9-yl) 7,27-dihydroxy-9,25-bis(2-hydroxy-6-oxo-6-(undecyloxy)hexyl)-14,17,20-trimethyl-15,19-dioxo-9,14,17,20,25-pentaazatritriacontanedioate], in series [1], the PDI amounted to 0.137 and the “Size (nm)” value was determined as 114 nm. Besides, in series [2], the “Encapsulation Percentage (%)” value came out at 99%. Further, in series [3] (fifth occasion), the “hEPO 6 Hr (ng/mL) Mean” value is listed as 45.6 ng/mL.
As to `CCCCCCCCCCC(O)CN(CCCNC(=O)CC(C)(C)CC(=O)NCCCN(CC(O)CCCCCCCCCC)CC(O)CCCCCCCCCC)CC(O)CCCCCCCCCC` (centres unmarked) [Compound LXXXVII, N,N′-bis({3-[bis(2-hydroxydodecyl)amino]propyl})-3,3-dimethylpentanediamide], in series [1], the PDI is given as 0.111 and the “Size (nm)” value was 123 nm. For the same compound, in series [2], the “Encapsulation Percentage (%)” value is on record as 88%. Moreover, the “hEPO 6 Hr (ng/mL) Mean” value in series [3] (first occasion) was found to be 29.1 ng/mL.
Take `CCCCCCCCCCC(=O)OCCCCC(O)CN(CCCCNC(=O)CC(C)(O)CC(=O)NCCCCN(CC(O)CCCCCOC(=O)C(CCCCCCCC)CCCCCCCC)CC(O)CCCCOC(=O)CCCCCCCCCC)CC(O)CCCCCOC(=O)C(CCCCCCCC)CCCCCCCC` (centres unmarked) [Compound XCIV]: in series [1], the PDI was 0.085 and the “Size (nm)” value amounted to 138 nm. Moreover, the “Encapsulation Percentage (%)” value in series [2] is 96%. In series [3] (fifth occasion), the “hEPO 6 Hr (ng/mL) Mean” value was 36.4 ng/mL.
For the compound `CCCCCCCCCCC(O)CN(CCCOC(=O)[C@H](Cc1ccccc1)NC(=O)CCCN(CC(O)CCCCCCCCCC)CC(O)CCCCCCCCCC)CC(O)CCCCCCCCCC` (stereo partly drawn) [Compound XCV, 3-[bis(2-hydroxydodecyl)amino]propyl (S)-2-{4-[bis(2-hydroxydodecyl)amino]butyrylamino}-3-phenylpropionate], in series [1], the PDI was 0.191 and the “Size (nm)” value is on record as 94 nm. Moreover, the “Encapsulation Percentage (%)” value in series [2] is recorded as 66%. Besides, in series [3] (fourth occasion), the “hEPO 6 Hr (ng/mL) Mean” value is 22.4 ng/mL.
For `CCCCCCCCCCC(O)CN(CCCOC(=O)[C@H](CCc1ccccc1)NC(=O)CCCN(CC(O)CCCCCCCCCC)CC(O)CCCCCCCCCC)CC(O)CCCCCCCCCC` (stereo partly drawn) [Compound XCVI, 3-(bis(2-hydroxydodecyl)amino)propyl (2S)-2-(4-(bis(2-hydroxydodecyl)amino)butanamido)-4-phenylbutanoate] the same measures were 0.166, 123 nm, 85% and 37.3 ng/mL.
